Data set [1] deals with S. mutans UA159. Kind of data set: Biofilm inhibition, S. mutans UA159 (crystal violet, OD562). It counts as cell-based, Streptococcus mutans. To be noted: for IC50 / inhibition at 50 µM: Streptococcus mutans; for inhibition at 50 µM: UA159, 50 μM; for S. mutans biofilm inhibition: 50 μM. Here is the method:
(§1) The bacterial strains, S. mutans UA159, S. gordonii DL1, and S. sanguinis SK36 were inoculated statically at 37° C. under 5% CO2 in Todd Hewitt Broth (THB) for 24 h. The cultures were then diluted with fresh THB (1:5) and reinoculated until optical density at 470 nm (OD470) reached 1. The optical density was read using BioTek 800TS microplate reader at 470 nm for bacterial growth and 562 nm for biofilm stained with crystal violet. Data was plotted in Graphpad Prism9.
Biofilm inhibition assays. Biofilm inhibition assays were performed in polystyrene microtiter 96 well plates. Stock solutions were prepared in chemically defined medium (CDM, JRH Biosciences, Lenexa, KS) with 2% sucrose, 1% bacteria cultures and various concentrations of the small molecule inhibitors to examine their activity against biofilm formation as described^69, 70. These stocks were assayed in 96 well plates in triplicate and incubated at 37° C. and 5% CO2 for 16 h. After reading optical density for bacterial growth, the plate was gently washed with water, dried, and stained with crystal violet, and then gently rinsed again with deionized water leaving the stained biofilm at the bottoms of the wells. Biofilms was dissolved in 200 μL of 30% acetic acid and absorbance at 562 nm was used read to determine biofilm biomass. Each assay was carried out at least in triplicate. Biofilm inhibitory concentration (IC50) of the compounds was determined by serial dilutions.
(§2) All bacterial strains (S. mutans UA159, S. gordonii DL1, and S. sanguinis SK36) were inoculated statically at 37° C. under 5% CO2 environment in Todd Hewitt Broth (THB) for 24 h^[61]. The cultures were then diluted with fresh THB (1:5) and reinoculated until the optical density at 470 nm reaches 1. The optical density was read using BioTek 800 TS absorbance reader at 470 nm for bacterial growth and 562 nm for biofilm stained with crystal violet. Data was plotted in Prism 10.0.2.
Biofilm inhibition assays were performed in polystyrene microtiter 96-well plates. Stock solutions were prepared in chemically defined medium (CDM) with 1% sucrose, 1% bacteria cultures and various concentrations of the small molecule inhibitors to examine their activity against biofilm formation as described^[62, 63]. These stocks were assayed in 96 well plates in triplicate and incubated at 37° C. and 5% CO2 for 16 h. After reading optical density for bacterial growth, the plate was washed, dried, and stained with 0.1% crystal violet which was again rinsed well with deionized water leaving the stained biofilm at the bottoms of the wells. This biofilm was dissolved in 200 μL of 30% acetic acid and absorbance at 562 nm was read to determine amount of biofilm formation. Each assay was carried out at least in triplicate. Biofilm inhibitor concentration (IC50) of the compounds was determined by serial dilutions from 0 μM-50 μM (1% DMSO).

In data set [2] the test system is S. mutans UA159. Kind of data set: Planktonic growth, S. mutans UA159 (OD470). The data set is classed as cell-based, Streptococcus mutans. To be noted: for inhibition at 50 µM: Streptococcus mutans, UA159, read-out: planktonic growth inhibition of S. mutans, 50 μM. On the procedure:
as §1
(§3) S. mutans, S. gordonii, and S. sanguinis growth assays. Effects of compounds on S. mutans and commensal bacterial growth were evaluated using the growth assay as described^69. S. mutans UA159, S. gordonii DL1, S. sanguinis SK36, cultures were grown for 24 h under 5% CO2 at 37° C. These cultures were then reinoculated with fresh THB (1:5) until OD470=1 when the bacteria were ready to be used. Different concentrations of the inhibitor were assayed in chemically defined media (CDM) with 1% of the bacteria, 1% sucrose and 1% DMSO in 96 well plates. The 96 well plates were incubated under 5% CO2 at 37° C. for 16 h. Growth of the bacteria was read after 16 h at OD470. Each assay was carried out at least in triplicate.
as §2
as §3, with “Effects” for “S. mutans, S. gordonii, and S. sanguinis growth assays. Effects”, “PEHA5, PEHA6, HA5 or HA6” for “compounds”, “described^[62].” for “described^69.”, “PEHA5, PEHA6, HA5 or HA6” for “inhibitor”, “CDM” for “chemically defined media (CDM)”

Data set [3] in a line: Solubility in water containing 1% DMSO (UV spectroscopy). The data set is classed as physicochemical. To be noted: for solubility compared with IIIC5: comparison with IIIC5 (25 μg/mL); for solubility: organic solvent or mixture, water containing 1% DMSO. Here is the method:
Solubility of MA1-6 and HA2-6 were determined as reported^46 (Table 1).
General considerations. ^1H-NMR and ^13C-NMR spectra were recorded on Bruker Avance Neo 400 and Avance II 700 spectrometers using TMS or appropriate solvent signals as internal standard. The chemical shift values are given in parts per million (ppm) relative to the internal standard used and the coupling constants (J) are given in hertz (Hz). High resolution mass spectra (HRMS) were recorded using Waters AutoSpec-Ultima™ NT magnetic sector mass spectrometer with Electron Impact (EI) Ionization source. The mass analyzer is an electric-magnetic-electric (EBE) sector (a double focusing sector). Anhydrous solvents used for reactions were purchased in Sure-Seal™ bottles from Aldrich chemical company. Other chemical reagents were purchased from Aldrich or Fisher chemical companies and used as received. Reactions were monitored with thin layer chromatography (TLC), which was done on silica gel plates with fluorescent indicator (Silicycle, silica gel, UV254, 25 μm plates). The TLC spots were observed under UV light with the wavelengths 254 nm and 365 nm. The reaction mixtures were purified by column chromatography using Si gel (32-63 μm) from Dynamic Absorbent, Inc. Melting points were determined on a Mel-Temp II melting point apparatus and are uncorrected. All tested compounds have ≥95% purity as determined by HPLC. HPLC traces were obtained using Shimadzu SPD-M20A. Solubility of compounds were determined by UV-spectroscopy method using Agilent Cary 60 UV-Vis spectrophotometer. HPLC analysis of the final compounds were conducted using Kinetex 5 μm C18 100 Å, LC Column 150×4.6 mm, compound=3 mM, 20 μL injection, solvent: mobile phase buffer, Conditions: 60% MeCN/40% H2O/0.1% Formic acid (isocratic), HPLC method 0-10 min, Signals were analyzed using a 254 nm UV detector. A chromatogram of Mobile Phase Buffer (20 μL) was obtained for comparison.

The conditions of data set [4]: water, 1% dmso; cited from earlier work.
[5] abbreviates: S. mutans UA159 biofilm, read-out: Biofilm IC50.

≈ marks a conversion by molar mass, not a printed value. Read-outs that look alike come from different tables or passages of the source.

The text below walks through data of patent US20260315431A1, “NANOMATERIAL ENCAPSULATED BIOFILM INHIBITORS FOR DENTAL CARIES TREATMENT” (THE UAB RESEARCH FOUNDATION, priority 2023, published 2026).

Take `O=C(C=Cc1ccccc1)c1ccccc1O` [Compound 3a, 1-(2-Hydroxyphenyl)-3-phenyl-2-propen-1-one]: the IC50 (as a rule, the concentration that gives 50% inhibition) in data set [1] (UA159, read-out: Biofilm IC50) is more than 300 µM.

On to `COc1ccc(C=CC(=O)c2ccccc2O)cc1` [Compound 3b, 1-(2-Hydroxyphenyl)-3-(4′-methoxyphenyl)-2-propen-1-one], for which the half-inhibitory concentration (IC50) in data set [1] (UA159, read-out: Biofilm IC50) was more than 300 µM.

`COc1ccc(C=CC(=O)c2ccccc2O)cc1OC` [Compound 3c, 3-(3′,4′-Dimethoxyphenyl)-1-(2-hydroxyphenyl) prop-2-en-1-one]: the IC50 in data set [1] (UA159, read-out: Biofilm IC50) was more than 300 µM.

On to `COc1cc(C=CC(=O)c2ccccc2O)cc(OC)c1` [Compound 3d, 3-(3′,5′-Dimethoxyphenyl)-1-(2-hydroxyphenyl) prop-2-en-1-one], for which, in data set [1] (UA159, read-out: Biofilm IC50), the IC50 was more than 300 µM.

In the case of `COc1cc(OC)c(OC)cc1C=CC(=O)c1ccccc1O` [Compound 3e, 1-(2-Hydroxyphenyl)-3-(2′,4′,5′-trimethoxyphenyl) prop-2-en-1-one], in data set [1] (UA159, read-out: Biofilm IC50), the IC50 is more than 300 µM.

For `COc1cc(C=CC(=O)c2ccccc2O)cc(OC)c1OC` [Compound 3f, 1-(2-Hydroxyphenyl)-3-(3′,4′,5′-trimethoxyphenyl) prop-2-en-1-one], in data set [2] (50 μM), the “planktonic growth of S. mutans” value is recorded as “no growth inhibition”. Besides, 50 µM produced 40% inhibition in data set [1]. Also, the IC50 in data set [1] (UA159, read-out: Biofilm IC50) is 181 µM.

On to `O=C1/C(=C/c2ccc(O)cc2)Oc2ccccc21` [HA2, 2-[(4′-Hydroxyphenyl)methylidene]-2,3-dihydro-1-benzofuran-3-one], for which the “solubility compared with IIIC5” value in data set [3] was “lower solubility than IIIC5”. Also, the solubility (as a rule, the concentration that dissolves in the medium under given conditions) in data set [3] turned out to be 18.9 µg/mL (≈ 79.5 µM). In addition, the “planktonic growth inhibition of S. mutans” value in data set [2] (50 μM) was found to be 70%. The inhibition (as a rule, the change of the read-out against control, counted positive when it falls) at 50 µM is 60% in data set [2] and more than 95% in data set [1]. Besides, the IC50 in data set [1] (UA159, read-out: Biofilm IC50) worked out at 18.8 ± 2.36 µM.

For the molecule `O=C1/C(=C/c2ccc(O)c(O)c2)Oc2ccccc21` [HA3, 2-[(3′,4′-Dihydroxyphenyl)methylidene]-2,3-dihydro-1-benzofuran-3-one], the solubility in data set [3] (UV spectroscopy) was 81.6 µg/mL (≈ 321 µM). Moreover, the inhibition at 50 µM was 40% in data set [2] and approximately 80% in data set [1]. Further, the IC50 was 30.7 µM in data set [1] (UA159, read-out: Biofilm IC50) and 30.7 µM in data set [1] (setting [5]).

Take `O=C1/C(=C/c2cc(O)cc(O)c2)Oc2ccccc21` [HA4, 2-[(3′,5′-Dihydroxyphenyl)methylidene]-2,3-dihydro-1-benzofuran-3-one]: in data set [3] (UV spectroscopy), the solubility was 76.5 µg/mL (≈ 301 µM). For the same molecule, in data set [2], the inhibition at 50 µM was determined as 30%. In data set [1], the “S. mutans biofilm inhibition” value is given as “did not show significant biofilm inhibition”. Moreover, the IC50 in data set [1] (UA159, read-out: Biofilm IC50) is 94.2 µM; in data set [1] (setting [5]), 94.2 µM.

Consider `O=C1C(=Cc2ccccc2)Oc2ccccc21` [MA1, 2-(Phenylmethylidene)-2,3-dihydro-1-benzofuran-3-one], for which the “solubility compared with IIIC5” value in data set [3] was “lower solubility than IIIC5”. In data set [3] (UV spectroscopy), the solubility was 8.51 ± 2 µg/mL (≈ 38.3 µM). For the same molecule, the inhibition at 50 µM in data set [2] was 80%. For the same molecule, the IC50 in data set [1] (UA159, read-out: Biofilm IC50) came to 33.6 ± 0.53 µM.

With `COc1ccc(/C=C2\Oc3ccccc3C2=O)cc1` [MA2, 2-[(4′-Methoxyphenyl)methylidene]-2,3-dihydro-1-benzofuran-3-one], in data set [3], the “solubility compared with IIIC5” value is “lower solubility than IIIC5” and the solubility is 16.2 µg/mL (≈ 64.3 µM). In addition, the IC50 in data set [1] (UA159, read-out: Biofilm IC50) was 108 µM. Further, the IC50 in data set [1] (UA159, read-out: Biofilm IC50 (unit inferred)) amounted to 108 µM.

On to `COc1ccc(/C=C2\Oc3ccccc3C2=O)cc1OC` [MA3, 2-[(3′,4′-Dimethoxyphenyl)methylidene]-2,3-dihydro-1-benzofuran-3-one], for which, in data set [3], the solubility came out at 36.3 µg/mL (≈ 128 µM). Further, the “S. mutans biofilm inhibition” value in data set [1] is “inactive”. The IC50 in data set [1] (UA159, read-out: Biofilm IC50) was 49.4 µM; in data set [1] (setting [5]) it was 49.4 µM.

With `COc1cc(/C=C2\Oc3ccccc3C2=O)cc(OC)c1` [MA4, 2-[(3′,5′-Dimethoxyphenyl)methylidene]-2,3-dihydro-1-benzofuran-3-one], in data set [3], the “solubility compared with IIIC5” value is “lower solubility than IIIC5” and the solubility was found to be 19 µg/mL (≈ 67.2 µM). Also, the IC50 in data set [1] (UA159, read-out: Biofilm IC50) was more than 300 µM.

As for `COc1cc(OC)c(OC)cc1/C=C1\Oc2ccccc2C1=O` [MA5, 2-[(2′,4′,5′-Trimethoxyphenyl)methylidene]-2,3-dihydro-1-benzofuran-3-one], in data set [3], the solubility is 42.4 µg/mL (≈ 136 µM). In addition, the results for the inhibition at 50 µM in data set [2] and in data set [1] were 30% and 60%, respectively. For the same molecule, the IC50 in data set [1] (UA159, read-out: Biofilm IC50) is 52.8 µM; in data set [1] (setting [5]), 52.8 µM.

`COc1cc(/C=C2\Oc3ccccc3C2=O)cc(OC)c1OC` [MA6, 2-[(3′,4′,5′-Trimethoxyphenyl)methylidene]-2,3-dihydro-1-benzofuran-3-one]: the solubility in data set [3] came out at 44.7 µg/mL (≈ 143 µM). In data set [1] (UA159, read-out: Biofilm IC50), the IC50 was more than 300 µM.

Take `O=C(O)c1ccccc1O` [Salicylic acid]: the solubility in data set [4] was 1880 ± 30 µg/mL (≈ 13600 µM).
